From article PMC7830115, “Design, Synthesis, Molecular Docking, and Tumor Resistance Reversal Activity Evaluation of Matrine Derivative with Thiophene Structure” (Molecules, 2021)

How the values were obtained:
[1] = system: CNE2; test: MTT cytotoxicity assay, CNE2; assay type: cell-based; settings: mean ± SD
Description: (§1) Prior to determining the combined inhibitory effects against NPC CDDP-resistance cells, the cytotoxicity effects of these 8 derivatives were evaluated against three NPC cell lines (CNE2, HONE1, and HK-1) and CDDP resistance cell line (CNE2/CDDP) by using MTT (3-(4,5-dimethyl-2-thiazolyl)-2,5-diphenyl-2-H-tetrazolium bromide) assays. […] Moreover, a liver normal cell LO2 was involved to evaluate the selectivity of these 8 compounds by using MTT assays.
(§2) Nasopharyngeal carcinoma cells (CNE2, HONE1, and CNE2/CDDP) were purchased from Shanghai Aulu Biological Technologh Co., Ltd. (Shanghai, China). HK-1 cell was purchased from Shanghai Shunran Biological Technologh Co., Ltd. CNE2, HONE1, and HK-1 were cultured in DMEM medium supplemented with 10% fetal bovine serum, 1% penicillin-streptomycin. CDDP-resistant NPC cell CNE2/CDDP was cultured in DMEM medium supplemented with CDDP to sustain its drug resistance. Cell viability was detected using the MTT assay. All the 8 derivatives were resolved with DMSO to make a storage solution at 1 M, and CDDP was resolved with phosphate buffer saline (PBS) to make a storage solution at 100 mM. The maximum concentrations of these 8 derivatives and CDDP used in MTT assays were set as 1 mM and 100 µM diluted with DMEM medium, respectively. Medium with 0.1% DMSO was set as control. To begin, an initial MTT assay was conducted to evaluate the cytotoxicity of 3a~3h with a dose range of 50, 100, 200, 400, and 800 µM. Then, a more precise dose range was set to calculate the IC50 of each compound (For 3a~3e: 50, 100, 200, 400, 600, and 800 µM; for 3f~3h: 12.5, 25, 50, 100, 200, and 400 µM). Then, 5000 cells were seeded in a 96-well plate for each well and treated with respective compounds at different concentrations for 72 h following additional treatment with MTT for 2~3 h. Then, MTT was removed and 150 µL DMSO was added into each well and the absorption values were measured at 490 nm using a SpectraMAX M5plate reader (Silicon Valley, CA, USA).

[2] = system: HONE1; test: MTT cytotoxicity assay, HONE1; assay type: cell-based; settings: mean ± SD
Description: as §1, §2

[3] = system: HK-1; test: MTT cytotoxicity assay, HK-1; assay type: cell-based; settings: mean ± SD
Description: as §1, §2

[4] = system: CNE2/CDDP; test: MTT cytotoxicity assay, CNE2/CDDP; assay type: cell-based; settings: cisplatin resistant cell line, mean ± SD
Description: as §1, §2

[5] = system: LO2; test: MTT cytotoxicity assay, LO2 normal liver cell; assay type: cell-based; settings: mean ± SD
Description: as §1, §2

[6] = system: NPC cell lines (CNE2, HONE1, and HK-1) and CDDP resistance cell line (CNE2/CDDP); test: MTT cytotoxicity, summary over NPC cell lines and CDDP resistance cell line; assay type: cell-based; settings: range over CNE2, HONE1, HK-1 and CNE2/CDDP, read-out: IC50, anti-proliferative effects
Description: as §1
(§3) Nasopharyngeal carcinoma cells (CNE2, HONE1, and CNE2/CDDP) were purchased from Shanghai Aulu Biological Technologh Co., Ltd. (Shanghai, China). HK-1 cell was purchased from Shanghai Shunran Biological Technologh Co., Ltd. CNE2, HONE1, and HK-1 were cultured in DMEM medium supplemented with 10% fetal bovine serum, 1% penicillin-streptomycin. CDDP-resistant NPC cell CNE2/CDDP was cultured in DMEM medium supplemented with CDDP to sustain its drug resistance. Cell viability was detected using the MTT assay. All the 8 derivatives were resolved with DMSO to make a storage solution at 1 M, and CDDP was resolved with phosphate buffer saline (PBS) to make a storage solution at 100 mM. […] Then, MTT was removed and 150 µL DMSO was added into each well and the absorption values were measured at 490 nm using a SpectraMAX M5plate reader (Silicon Valley, CA, USA).

[7] = system: CNE2/CDDP cells; test: Combined inhibitory effect with CDDP, MTT; assay type: cell-based; settings: co-treated with CDDP (5 µM) and compound at IC10, MTT
Description: Compounds regularly show synergy effects with a relatively low dosage range (IC10 to IC30). In order to preliminarily verify whether 8 compounds could increase cell sensitivity to CDDP, CNE2/CDDP cells were co-treated with CDDP (5 µM) and each compound (IC10), respectively. The cytotoxicity was evaluated by using MTT assays. […] Thus, compound 3f was selected for further experiments.
as §3, with “mM. The maximum concentrations of these 8 derivatives and CDDP used in MTT assays were set as 1 mM and 100 µM diluted with DMEM medium, respectively.” for “mM.”, “USA). […]” for “USA).”

[8] = system: CNE2/CDDP cells; test: Synergistic inhibitory effect with CDDP, combination index (Chou-Talalay); assay type: cell-based; settings: treated simultaneously with 3f (20, 40, 60 µM) and CDDP (5, 10, 15 µM), 72 h; CI < 1 synergism
Description: To determine whether compound 3f display synergistic inhibitory effects with CDDP against CNE2/CDDP cells, an MTT assay was performed. Cells were co-treated with compound 3f and CDDP or treated with CDDP or 3f alone. There are 9 groups of the combination between 3f and CDDP (Table 2). Inhibition rates were calculated, and the fraction affected (Fa) and CI (Combination Index) were generated for each group, and dose–effect curves were obtained. The CI greater than, equal to, and less than 1.0 indicate antagonistic, additive and synergistic effects, respectively.
The combination index (CI) was evaluated using Calcusyn 2.0 based on the Chou-Talalay method. Data from cell viability assays were applied to the CI calculation.
Figure 2 Synergistic inhibitory effects of compound 3f with CDDP in CNE2/CDDP cells. CNE2/CDDP cells were cultured with 3f and/or CDDP. After 72 h, 3-(4,5-dimethyl-2-thiazolyl)-2,5-diphenyl-2-H-tetrazolium bromide (MTT) was added. Two hours later, optical density (OD) was detected, and the inhibition rate was quantified. Combination Index (CI) plots were then generated using the Chou-Talay method and Calcusyn software.

[9] = system: CNE2/CDDP cells; test: Apoptosis assay (Annexin V-FITC/PI, FACS); assay type: cell-based; settings: 24 h, mean ± SD; for cell apoptosis, treatment alone: CDDP 4 µg/mL or 3f 40 µM alone, three independent experiments
Description: Subsequently, to further verify whether the synergistic effects of compound 3f with CDDP involved cell death, an apoptosis assay was conducted. CNE2/CDDP cells were co-treated with CDDP and compound 3f, or CDDP and 3f alone for 24 h. Then, cells were harvested for staining by using an apoptosis kit, following FACS detection (Figure 3a). Then, the data from three independent experiments were analyzed and the results were shown in the form of histogram (Figure 3b).
CNE2/CDDP cells (3 × 10^5) were seeded into a 6-well plate for each well. Twenty-four hours later, medium was removed and cells were treated with different compounds for […]. Then, cells were harvested, washed with cold PBS, and stained with Annexin V-FITC and PI for 15 min in dark. Finally, samples were analyzed by flow cytometer.
Figure 3 Compound 3f (40 µM) increased apoptosis rate of CDDP (4 µg/mL) in CNE2/CDDP cells. (a), representative apoptosis detection by FACS. (b), three independent experiments of apoptosis assays were analyzed and p-value was calculated. Data are represented as mean ± SD. Bar means SD value * p < 0.05, compared with CDDP; # p < 0.05, compared with 3f.

[10] = system: CNE2/CDDP cells; test: Subcutaneous tumor-bearing model, CNE2/CDDP; assay type: in vivo
Description: (§4) Finally, to evaluate the combination inhibitory effects of compound 3f with CDDP in vivo, the subcutaneous tumor-bearing model was applied by using strain of BALB/C nude mice. In detail, 32 BALB/C nude mice without tumor were purchased and CNE2/CDDP cells (2 × 10^7) were subcutaneously injected into the right flank of each mouse to make tumor burden. Then, the 32 mice with tumor burden were divided into four groups which receive vehicle, CDDP (5 mg/kg), compound 3f (40 mg/kg), and CDDP with 3f combination treatments (5mg/kg for CDDP and 40 mg/kg for 3f), respectively, through intraperitoneal injection with two times a week for one month. […] The adverse effects of treatment were also tested by detecting serum concentration of Alanine Aminotransferase (ALT), Aspartate aminotransferase (AST), and creatinine (Cr).
The in vivo studies were conducted according to protocols approved by the Animal Ethics Committee of Guangxi University (GXU2018-019). The subcutaneous tumor-bearing model using BALB/C nude mice was applied to assess the in vivo CDDP-resistant reversal activity of compound 3f. In brief, 32 BALB/C nude mice without tumor were purchased and CNE2/CDDP cells (2 × 10^7) were subcutaneously injected into the right flank of each mouse to make tumor burden. Then, the 32 mice with tumor burden were divided into four groups which receive vehicle, CDDP (5 mg/kg), compound 3f (40 mg/kg), and CDDP with 3f combination treatments (5 mg/kg for CDDP and 40 mg/kg for 3f) (n = 8 for each group; twice a week for a month). Drugs were resolved with sterile saline–ethanol–DMSO (89:10:1, v/v/v). Sterile saline–ethanol–DMSO (89:10:1, v/v/v) was used as vehicle. Tumor volume was calculated according to the formula: V = 0.5 × L × W^2 (L: the long diameter of the tumor; W: the short diameter of the tumor). At the time of the animal sacrifice, tumors were excised and weighted.

[11] = Serum ALT, AST and Cr by ELISA; assay type: in vivo, BALB/C nude mice; settings: groups: vehicle, CDDP 5 mg/kg, 3f 40 mg/kg, combination; ELISA at sacrifice
Description: as §4
Mice were sacked at the time of the animal sacrifice and blood was collected to detect ALT, AST, and Cr. Immediately, serum was separated by centrifugation at 2000 g, and ALT, Cr, and AST were determined using ELISA kits (Shanghai Enzyme-linked Biotechnology Co., Ltd., catalog: ml063179, ml058577, and ml057581) according to the manufacture instructions. The absorbance of the plates was read at 450 nm using an automated microplate reader (Bio-Tek, Winooski, VT, USA).

[12] = system: leukemia, breast, and bladder cancer cells; settings: cited from earlier work

| Compound | IC50 ([1]; Homo sapiens, CNE-2, 72 h) | IC50 ([2]; Homo sapiens, HONE1, 72 h) | IC50 ([3]; HK-1, 72 h) | IC50 ([4]; Homo sapiens, CNE-2, 72 h) | IC50 ([5]; Homo sapiens, L02, 72 h) | melting point | other results |
| --- | --- | --- | --- | --- | --- | --- | --- |
| S=C1/C(=C/c2csc3ccccc23)CC[C@@H]2[C@H]3CCCN4CCC[C@@H](CN12)[C@@H]34 [3a] | 113 ± 7.2 µM | 152 ± 8.4 µM | 179 ± 12.1 µM | 375 ± 18.1 µM | 212 ± 15.3 µM | – | – |
| S=C1/C(=C/c2cccs2)CC[C@@H]2[C@H]3CCCN4CCC[C@@H](CN12)[C@@H]34 [3b] | 158 ± 11.3 µM | 125 ± 6.3 µM | 208 ± 9.4 µM | 583 ± 15.3 µM | 156 ± 11.7 µM | – | – |
| S=C1/C(=C/c2ccsc2)CC[C@@H]2[C@H]3CCCN4CCC[C@@H](CN12)[C@@H]34 [3c, 14-(thiophen-3-ylmethylene)thiomatrine] | 144 ± 10.3 µM | – | 191 ± 11.3 µM | 676 ± 23.8 µM | 285 ± 20.7 µM | 166.8 to 167.5 °C | – |
| Cc1ccc(/C=C2\CC[C@@H]3[C@H]4CCCN5CCC[C@@H](CN3C2=S)[C@@H]45)s1 [3d, 14-((5-methylthiophen-2-yl)methylene)thiomatrine] | 92.4 ± 6.5 µM | 121 ± 7.7 µM | 138 ± 9.4 µM | 294 ± 20.1 µM | 138 ± 9.6 µM | 186.2 to 187.4 °C | – |
| Cc1ccsc1/C=C1\CC[C@@H]2[C@H]3CCCN4CCC[C@@H](CN2C1=S)[C@@H]34 [3e, 14-((3-methylthiophen-2-yl)methylene)thiomatrine] | 148 ± 5.6 µM | 185 ± 12.4 µM | 180 ± 7.3 µM | 452 ± 26.8 µM | 243 ± 12.7 µM | 193.6 to 195 °C | – |
| S=C1C(=Cc2ccc(Cl)s2)CCC2C3CCCN4CCCC(CN12)C34 (centres unmarked) [3f, 14-((5-chlorothiophen-2-yl)methylene)thiomatrine] | 35.7 ± 3.4 µM | – | 51.3 ± 3.5 µM | 91.4 ± 8.8 µM | 72 ± 5.8 µM | – | IC50 [6]: 30 to 100 µM; increase of the inhibitory effects of CDDP [7]: could increase the inhibitory effects of CDDP; CI (Combination Index) [8]: less than 1; cell apoptosis, treatment alone [9]: 9.97 ± 1.36; cell apoptosis, combined treatment with CDDP ([9]; CDDP (4 µg/mL) and 3f (40 µM) combined): 15.53 ± 1.61; tumor volume and weight, combined treatment with CDDP ([10]; CDDP 5 mg/kg + 3f 40 mg/kg, intraperitoneal, twice a week for one month, compared with CDDP or 3f alone): significantly reduced tumor volume and weight; toxicity in vivo ([10]; dose of 40 mg/kg, reflected by mouse body weight and ALT, AST, Cr): no obvious toxicity; body weight of mice ([10]; groups: vehicle, CDDP 5 mg/kg, 3f 40 mg/kg, combination, i.p. twice a week for one month): no significant difference in body weight; serum concentrations of ALT, AST, and Cr [11]: no significant changes |
| S=C1/C(=C/c2cc(Br)cs2)CC[C@@H]2[C@H]3CCCN4CCC[C@@H](CN12)[C@@H]34 [3g, 14-((4-bromothiophen-2-yl)methylene)thiomatrine] | 58.3 ± 2.9 µM | 71.5 ± 4.2 µM | 90.7 ± 6.6 µM | 206 ± 11.7 µM | 68 ± 5.1 µM | 245.7 to 246.3 °C | – |
| S=C1/C(=C/c2ccc(Br)s2)CC[C@@H]2[C@H]3CCCN4CCC[C@@H](CN12)[C@@H]34 [3h, 14-((5-bromothiophen-2-yl)methylene)thiomatrine] | 76.2 ± 4.5 µM | 89.7 ± 6.2 µM | 103 ± 7.8 µM | 178 ± 15.8 µM | 92 ± 8.6 µM | 239.9 to 240.6 °C | – |
| [NH2][Pt]([NH2])([Cl])[Cl] [CDDP, Cisplatin, reference compound] | – | – | – | – | – | – | IC50 ([1]; 72 h): 3.77 ± 0.26 µM; IC50 ([2]; 72 h): 5.23 ± 0.37 µM; IC50 ([3]; 72 h): 6.73 ± 0.42 µM; IC50 ([4]; 72 h): 29.5 ± 3.12 µM; IC50 ([5]; 72 h): 6.33 ± 0.56 µM; cell apoptosis, treatment alone [9]: 7.58 ± 0.82 |
| O=C1CCC[C@@H]2[C@H]3CCCN4CCC[C@@H](CN12)[C@@H]34 [Matrine] | > 1000 µM | > 1000 µM | > 1000 µM | > 1000 µM | > 1000 µM | – | IC50 [6]: > 1000 µM; dosage reversing drug resistance in vitro [12]: more than 1 mM |
